Results: patent US7319109B2, “Farnesoid X receptor agonists” (Smith Kline Beecham Corporation, priority 2002, dated 2008)

The compounds below were run against T1, Human FXRα Ligand Binding Domain (FXRα LBD) (Homo sapiens, UniProt Q96RI1) (assay: FXR Affinity Binding Assay: ligand mediated cofactor peptide (SRC-1 LCD2, 676-700) interaction, time resolved fluorescence). Settings: FXRα LBD-APC / europium labeled SRC-1 peptide, TRF signal, at least 2 hours at room temperature; read-out: Activity (pEC50) (converted).
T1 construct: polyhistidine (N); made in house; host or cells: E. coli BL21 (DE3), pRSET-A vector
T1 sequence (Q96RI1 222-472 isoform Q96RI1-2): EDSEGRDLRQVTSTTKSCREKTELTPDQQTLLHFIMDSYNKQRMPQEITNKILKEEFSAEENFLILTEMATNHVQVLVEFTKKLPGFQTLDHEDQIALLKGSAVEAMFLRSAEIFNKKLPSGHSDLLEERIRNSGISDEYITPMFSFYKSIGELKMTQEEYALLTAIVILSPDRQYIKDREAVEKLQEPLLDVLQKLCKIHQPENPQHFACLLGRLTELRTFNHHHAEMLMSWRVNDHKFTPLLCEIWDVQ

EC50	Compound
102 to 1000 nM	CC(C)c1onc(-c2c(Cl)cccc2Cl)c1COc1ccc(NCc2cccc(C(=O)O)c2)c(Cl)c1 [Example 3, 3-{[(2-Chloro-4-{[3-(2,6-dichlorophenyl)-5-isopropylisoxazol-4-yl]methoxy}phenyl)amino]methyl}benzoic acid]
102 to 1000 nM	COC(=O)c1cccc(N(C)Cc2ccc(OCc3c(-c4c(Cl)cccc4Cl)noc3C(C)C)cc2Cl)c1 [Example 92, Methyl 3-[(2-chloro-4-{[3-(2,6-dichlorophenyl)-5-isopropylisoxazol-4-yl]methoxy}benzyl)(methyl)amino]benzoate]
< 100 nM	CC(C)c1onc(-c2c(Cl)cccc2Cl)c1COc1ccc(CSc2cccc(C(=O)O)c2)c(Cl)c1 [Example 78, 3-[(2-Chloro-4-{[3-(2,6-dichlorophenyl)-5-isopropylisoxazol-4-yl]methoxy}benzyl)thio]-benzoic acid]
102 to 1000 nM	CC(C)c1onc(-c2c(Cl)cccc2Cl)c1COc1ccc(CSc2ccc(C(=O)O)cc2)c(Cl)c1 [Example 82, 4-[(2-Chloro-{[3-(2,6-dichlorophenyl)-5-isopropylisoxazol-4-yl]methoxy}benzyl)thio]-benzoic acid]
< 100 nM	CC(C)c1onc(-c2c(Cl)cccc2Cl)c1COc1ccc(COc2ccc(C(=O)O)cc2)c(Cl)c1 [Example 81, 4-[(2-Chloro-4-{[3-(2,6-dichlorophenyl)-5-isopropylisoxazol-4-yl]methoxy}benzyl)oxy]benzoic acid]
< 100 nM	Cc1cc(OCc2c(-c3c(Cl)cccc3Cl)noc2C(C)C)ccc1COc1cccc(C(=O)O)c1 [Example 79, 3-[(4-{[3-(2,6-Dichlorophenyl)-5-isopropylisoxazol-4-yl]methoxy}-2-methylbenzyl)oxy]-benzoic acid]
102 to 1000 nM	CC(C)c1onc(-c2c(Cl)cccc2Cl)c1COc1ccc(NC(=O)c2cccc(C(=O)O)c2)c(Cl)c1 [Example 28, 3-[(2-Chloro-4-{[3-(2,6-dichlorophenyl)-5-isopropyl-4-isoxazolyl]methoxy}anilino)carbonyl]benzoic acid]
< 100 nM	CC(C)c1onc(-c2c(Cl)cccc2Cl)c1COc1ccc(N(C)S(=O)(=O)c2cccc(C(=O)O)c2)c(Cl)c1 [Example 47, 3-{[(2-Chloro-4-{[3-(2,6-dichlorophenyl)-5-isopropylisoxazol-4-yl]methoxy}phenyl)-(methyl)amino]sulfonyl}benzoic acid]
< 100 nM	Cc1cc(OCc2c(-c3c(Cl)cccc3Cl)noc2C(C)C)ccc1N(C)Cc1cccc(C(=O)O)c1 [Example 1, 3-{[(4-{[3-(2,6-Dichlorophenyl)-5-isopropylisoxazol-4-yl]methoxy}-2-methylphenyl)(methyl)amino]methyl}benzoic acid]
102 to 1000 nM	CC(C)c1onc(-c2ccccc2OC(F)(F)F)c1COc1ccc(CSc2cccc(C(=O)O)c2)c(Cl)c1 [Example 90, 3-{[2-Chloro-4-({5-isopropyl-3-[2-(trifluoromethoxy)phenyl]isoxazol-4-yl}methoxy)-benzyl]thio}benzoic acid]
102 to 1000 nM	CCN(c1ccc(OCc2c(-c3c(Cl)cccc3Cl)noc2C(C)C)cc1C)S(=O)(=O)c1ccc(C(=O)O)cc1 [Example 66, 4-{[(4-{[3-(2,6-Dichlorophenyl)-5-isopropylisoxazol-4-yl]methoxy}-2-methylphenyl)-(ethyl)amino]sulfonyl}benzoic acid]
102 to 1000 nM	COC(=O)c1cccc(S(=O)(=O)Nc2ccc(OCc3c(-c4c(Cl)cccc4Cl)noc3C(C)C)cc2C)c1 [Example 37, Methyl 3-{[1(4-{[3-(2,6-dichlorophenyl)-5-isopropylisoxazol-4-yl]methoxy}-2-methylphenyl)amino]sulfonyl}benzoate]
1020 to 10000 nM	COC(=O)c1cccc(COc2ccc(OCc3c(-c4c(Cl)cccc4Cl)noc3C(C)C)cc2Cl)c1 [Example 99, Methyl 3-[(2-chloro-4-{[3-(2,6-dichlorophenyl)-5-isopropylisoxazol-4-yl]methoxy}-phenoxy)methyl]benzoate]
102 to 1000 nM	Cc1cc(OCc2c(-c3c(Cl)cccc3Cl)noc2C(C)C)ccc1NC(=O)c1ccc(C(=O)O)cc1 [Example 27, 4-[(4-{[3-(2,6-Dichlorophenyl)-5-isopropyl-4-isoxazolyl]methoxy}-2-methylanilino)carbonyl]benzoic acid]
102 to 1000 nM	CC(C)c1onc(-c2c(Cl)cccc2Cl)c1COc1ccc(CNc2cccc(C(=O)O)c2)c(Cl)c1 [Example 94, 3-[(2-Chloro-4-{[3-(2,6-dichlorophenyl)-5-isopropylisoxazol-4-yl]methoxy}benzyl)amino]benzoic acid]

Second part, the compound before the results:

Compound	EC50
Cc1cc(OCc2c(-c3ccccc3OC(F)(F)F)noc2C(C)C)ccc1COc1cccc(C(=O)O)c1 [Example 86, 3-{[4-({5-Isopropyl-3-[2-(trifluoromethoxy)phenyl]isoxazol-4-yl}methoxy)-2-methyl-benzyl]oxy}benzoic acid]	102 to 1000 nM
COC(=O)c1ccc(S(=O)(=O)Nc2ccc(OCc3c(-c4c(Cl)cccc4Cl)noc3C(C)C)cc2)cc1 [Example 55, Methyl 4-{[(4-{[3-(2,6-dichlorophenyl)-5-isopropylisoxazol-4-yl]methoxy}phenyl)-amino]sulfonyl}benzoate]	1020 to 10000 nM
CC(C)c1onc(-c2ccccc2OC(F)(F)F)c1COc1ccc(CN(C)c2cccc(C(=O)O)c2)c(Cl)c1 [Example 97, 3-[[2-Chloro-4-({5-isopropyl-3-[2-(trifluoromethoxy)phenyl]-4-isoxazolyl}methoxy)benzyl](methyl)amino]benzoic acid]	102 to 1000 nM
CC(C)c1onc(-c2c(Cl)cccc2Cl)c1COc1ccc(N(C)S(=O)(=O)c2ccc(C(=O)O)cc2)cc1 [Example 64, 4-{[(4-{[3-(2,6-Dichlorophenyl)-5-isopropylisoxazol-4-yl]methoxy}phenyl)(methyl)-amino]sulfonyl}benzoic acid]	102 to 1000 nM
CCN(c1ccc(OCc2c(-c3c(Cl)cccc3Cl)noc2C(C)C)cc1)S(=O)(=O)c1ccc(C(=O)O)cc1 [Example 67, 4-{[(4-{[3-(2,6-Dichlorophenyl)-5-isopropylisoxazol-4-yl]methoxy}phenyl)(ethyl)amino]-sulfonyl}benzoic acid]	102 to 1000 nM
COC(=O)c1cccc(OCc2ccc(OCc3c(-c4ccccc4OC(F)(F)F)noc3C(C)C)cc2C)c1 [Example 84, Methyl 3-{[4-({5-isopropyl-3-[2-(trifluoromethoxy)phenyl]isoxazol-4-yl}methoxy)-2-methylbenzyl]oxy}benzoate]	1020 to 10000 nM
COC(=O)c1cccc(S(=O)(=O)Nc2ccc(OCc3c(-c4c(Cl)cccc4Cl)noc3C(C)C)cc2)c1 [Example 38, Methyl 3-{[(4-{[3-(2,6-dichlorophenyl)-5-isopropylisoxazol-4yl]methoxy}phenyl)amino]-sulfonyl}benzoate]	102 to 1000 nM
COC(=O)c1cccc(SCc2ccc(OCc3c(-c4ccccc4OC(F)(F)F)noc3C(C)C)cc2C)c1 [Example 89, Methyl 3-{[4-({5-isopropyl-3-[2-(trifluoromethoxy)phenyl]isoxazol-4-yl}methoxy)-2-methylbenzyl]thio}benzoate]	102 to 1000 nM
Cc1cc(OCc2c(-c3c(Cl)cccc3Cl)noc2C(C)C)ccc1N(C)Cc1ccc(C#N)cc1 [Example 9, 4-[(4-{[3-(2,6-Dichlorophenyl)-5-isopropyl-4-isoxazolyl]methoxy}-2-dimethylanilino)methyl]benzonitrile]	102 to 1000 nM
COC(=O)c1ccc(S(=O)(=O)Nc2ccc(OCc3c(-c4c(Cl)cccc4Cl)noc3C(C)C)cc2C)cc1 [Example 54, Methyl 4-{[(4-{[3-(2,6-dichlorophenyl)-5-isopropylisoxazol-4-yl]methoxy}-2-methyl-phenyl)amino]sulfonyl}benzoate]	< 100 nM
CCc1onc(Cc2c(Cl)cccc2Cl)c1COc1ccc(N(C)Cc2cccc(C(=O)O)c2)c(C)c1 [Example 13, 3-[(4-{[3-(2,6-Dichlorobenzyl)-5-ethyl-4-isoxazolyl]methoxy}-2-dimethylanilino)methyl]benzoic acid]	102 to 1000 nM
CCc1onc(Cc2c(Cl)cccc2Cl)c1COc1ccc(N(C)S(=O)(=O)c2cccc(C(=O)O)c2)c(C)c1 [Example 74, 3-{[(4-{[3-(2,6-Dichlorobenzyl)-5-ethylisoxazol-4-yl]methoxy}-2-methylphenyl)(methyl)-amino]sulfonyl}benzoic acid]	102 to 1000 nM
Cc1cc(OCc2c(-c3c(Cl)cccc3Cl)noc2C(C)C)ccc1N(C)Cc1ccc(CO)cc1 [Example 12, {4-[(4-{[3-(2,6-Dichlorophenyl)-5-isopropyl-4-isoxazolyl]methoxy}-2-dimethylanilino)methyl]phenyl}methanol]	< 100 nM
Cc1cc(OCc2c(-c3ccccc3OC(F)(F)F)noc2C(C)C)ccc1N(C)Cc1ccc(C(=O)O)o1 [Example 18, 5-{[4-({5-Isopropyl-3-[2-(trifluoromethoxy)phenyl]-4-isoxazolyl}methoxy)-2-dimethylanilino]methyl}-2-furoic acid]	< 100 nM
Cc1cc(OCc2c(-c3c(Cl)cccc3Cl)noc2C(C)C)ccc1N(C)Cc1occc1C(=O)O [Example 10, 2-[(4-{[3-(2,6-Dichlorophenyl)-5-isopropyl-4-isoxazolyl]methoxy}-2-dimethylanilino)methyl]-3-furoic acid]	102 to 1000 nM
CC(C)c1onc(-c2c(Cl)cccc2Cl)c1COc1ccc(NS(=O)(=O)c2ccc(C(=O)O)cc2)cc1 [Example 58, 4-{[(4-{[3-(2,6-Dichlorophenyl)-5-isopropylisoxazol-4-yl]methoxy}phenyl)amino]-sulfonyl}benzoic acid]	102 to 1000 nM
Cc1cc(OCc2c(Cc3c(Cl)cccc3Cl)noc2C2CC2)ccc1N(C)Cc1cccc(C(=O)O)c1 [Example 17, 3-[(4-{[5-Cyclopropyl-3-(2,6-dichlorobenzyl)-4-isoxazolyl]methoxy}-2-dimethylanilino)methyl]benzoic acid]	102 to 1000 nM
